In US8674113B2, “Compounds” (Boehringer Ingelheim International GmbH, priority 2010, dated 2014):
Like-named read-outs stand apart in the source and are kept apart here.

Assays:
[1] = target: recombinant human mPGES-1 (Homo sapiens (Human), UniProt O14684); assay: mPGES-1 enzyme assay (HTRF detection of PGE2); assay type: biochemical
Experimental: Microsomes from Rosetta E. coli bacteria expressing recombinant human mPGES-1 can be derived as described below:
Inoculate 5 ml LB with Ampicilin (50 μg/ml) and Chloramphenicol (34 μg/ml) with bacteria from freeze culture. Incubate 8 h at 37° C. with 200 rpm. Thereafter, inoculate 500-1000 ml LB containing Amp and Chloro with the 5 ml on culture and grow to OD640 of 0.8-1.0. Chill the culture to +4° C. before induction. Induce the culture with IPTG at a final concentration of 400 μM. Express the protein at room temp 18-23° C. with 200 rpm shaking over night.
The following steps can be performed on the following day: • 1. Spin down the cells in 250 ml centrifuge flasks for 15 min at 7000 rpm (Beckmann Coulte Avanti J-E centrifuge) • 2. Dissolve the pellet from 250 ml culture in 12.5 ml homogenization buffer • 3. (15 mM Tris-HCL pH8, 1 mM EDTA pH8, […], 2.5 mM GSH, 1 Tablet Protease inhibitor per 50 ml buffer) • 4. Disintegrate the cells by sonication, 5×10 seconds at 48% amplitude of a 750 W sonifier • 5. Add 2.5 ml MgCl2 (100 mM) and DNase 12.5 μl (0.8 mg/ml) and incubate on ice for 30 min • 6. Spin down the bacteria debris and save the supernatant, 7000 rpm for 15 min • 7. Isolate the protein containing membranes in the supernatant by ultracentrifugation 120000×g for 2 hour at 4° C. (Sorvall T880 rotor). • 8. Discard the supernatant and dissolve the pellet in 20 mM Potassium phosphate buffer pH7.4 (KH2PO4 and K2HPO4) buffer by sonication (5×10 s, 30% of a 50 W sonifier) and aliquot the enzyme and store aliquots at −80° C.
Before each experiment is performed an aliquot of the enzyme is thawed and it can then be dissolved in 0.1 M Potassium phosphate buffer pH7.4 (KH2PO4 and K2HPO4) buffer containing 2.5 mM GSH.
The aim of this assay is to determine the affinity of a test compound for the mPGES-1 enzyme.
47 μl of recombinant human mPGES-1 (˜0.5 μg protein/well) containing microsomal suspension in a buffer containing GSH, (2.5 mmol/L L-Glutathione reduced, dissolved in 0.1 mol/L Phosphat Buffer pH 7.4) is dispensed in a 384-well plate and thereafter 1 μl of the test compound(s) is/are added and incubated for 25 minutes at room temperature. The enzyme reaction is started by the addition of 2 ul PGH2 (final conc 2 μM) disolved in water-free Diglyme. After 60 seconds the reaction is terminated by addition of a stop solution containing FeCl2 (10 μL 0.074 mol/l FeCl2). The samples are diluted between 1:25 in PBS (Phosphate Buffered Saline). 10 μl of the diluted samples are transferred to 384-well low volume plate. In order to quantify the amount of PGE2 that has been formed, a homogenous time resolved fluorescent (HTRF) detecting of PGE2 has been performed using a commercially available kit from Cisbio according to the manufactures recommendation. This HTRF-based assay has been described in detail (see: Goedken et al., J Biomol Screen, 2008, 13(7), 619-625). Briefly, the diluted samples are mixed with 5 μl PGE2-d2 conjugate and 5 μl anti-PGE2 cryptate conjugate. After an incubation period of the plates over night, the fluorescence is measured by the use of an appropriate microplate reader.
The fluorescence of Europium cryptate (maxex=307 nm, maxem=620 nm) and d2-PGE2 (maxex=620 nm, maxem=665 nm) are measured.
The extent of the specific HTRF is measured as a ratio of the emission intensity at 665 nm vs. that at 620 nm at an excitation puts of 320 nm. The quantification plate contains also wells with different concentrations of PGE2 as calibration curve for the calculation of the PGE2 concentrations from the HTRF ratio values.
From all mPGES enzyme assay the background is subtracted and the IC50 is calculated over a nonlinear regression with conventional software.

mPGES-1 in A549 cells = mPGES-1 in A549 cells (Homo sapiens (Human), UniProt O14684); assay: A549 cell-based assay (PGE2 formation, 50% human serum)
mPGES-1 in A549 cells, sequence (O14684 whole entry): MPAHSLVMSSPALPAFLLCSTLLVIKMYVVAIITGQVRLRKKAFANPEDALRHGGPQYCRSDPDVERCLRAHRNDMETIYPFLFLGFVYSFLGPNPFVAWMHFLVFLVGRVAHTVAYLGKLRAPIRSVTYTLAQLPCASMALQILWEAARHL
Experimental: Although the enzymatic assay is a high throughput assay the disadvantage is that it uses a recombinant protein which is not in its natural environment. Accordingly a cellular assay was established in which a cell line of human origin (A549) expressing the mPGES-1 protein was used. In addition in order to mimic the situation in humans in which compounds can be bound to plasma proteins 50% human serum is added in the assay.
A549 cells (ATCC: CCL-185) are grown to about 90% confluence in F-12K Nutrient Mixture (Kaighn's Mod. Gibco) containing 10% FBS in a humified incubator at 37° C. and 5% CO2. Cells were detached using Trypsin-EDTA. A549 cells were seeded in a 384-well collagene plate at a density of 7000 cells/well (50 μl) in F-12 medium containing 1% Penicillin-Streptomycin and 50% human serum. The cells were allowed to attach for 3-4 h. After that the cells were incubated for 20-24 h in F-12k medium supplemented with 50% human serum, 1% Penicillin-Streptomycin and containing IL-1β at a final concentration of 5 ng/ml as well as 10 nM arachidonic acid in the presence of a vehicle or a test compound. The total volume is 100 μl.
Concentrations of PGE2 in the cell free medium (10 μl) were measured using a commercially available HTRF kit from Cisbio (as described above). The PGE2 formation in the absence of test compound was taken as 100%.
IC50 values were derived from at 6-8 point titrations using conventional software.

[2] = recombinant human mPGES-1 microsomes, PGH2 2 μM, 60 seconds, read-out: mPGES-1 inhibitory effect IC50 in the enzyme assay
[3] = IL-1β 5 ng/ml, 10 nM arachidonic acid, 20-24 h, read-out: mPGES-1 inhibitory effect IC50 in the cell assay
[4] = Table C comparison of selected benzimidazoles, read-out: Enzym IC50
[5] = Table C comparison of selected benzimidazoles, read-out: Cell IC50

recombinant human mPGES-1, sequence (O14684 whole entry): as above

## Cn1c(Nc2c(Cl)ccc(CNC(=O)C(C)(C)C)c2Cl)nc2cc(C(=O)Nc3ccc(F)c(Cl)c3)c(N3CCC(F)CC3)cc21 [Example 1, N-(4-Fluoro-3-chloro-phenyl)-2-{2,6-dichloro-3-[(2,2-dimethyl-propionylamino)-methyl]-phenylamino}-6-(4-fluoro-piperidinyl)-1-methyl-1H-benzimidazole-5-carboxylic acid amide]
[1]; [2]
  IC50: 2 nM
mPGES-1 in A549 cells; [3]
  IC50: 1 nM

## CN(CC(F)F)c1cc2c(cc1C(=O)Nc1ccc(F)c(Cl)c1)nc(Nc1c(Cl)ccc(CNC(=O)C(C)(C)C)c1Cl)n2C [Example 2, N-(4-Fluoro-3-chloro-phenyl)-2-{2,6-dichloro-3-[(2,2-dimethyl-propionylamino)-methyl]-phenylamino}-6-[N-methyl-N-(2,2-difluoroethyl)-amino]-1-methyl-1H-benzimidazole-5-carboxylic acid amide]
[1]; [4]
  IC50: 2 nM
[1]; [2]
  IC50: 2 nM
mPGES-1 in A549 cells; [3]
  IC50: < 1 nM
mPGES-1 in A549 cells; [5]
  IC50: < 1 nM

## Cn1c(Nc2c(Cl)ccc(CNC(=O)C(C)(C)C)c2Cl)nc2cc(C(=O)N[C@H]3CC[C@H](C(F)(F)F)CC3)c(NC3CC(F)(F)C3)cc21 [Example 4, N-(trans-4-Trifluoromethyl-cyclohexyl)-2-{2,6-dichloro-3-[(2,2-dimethyl-propionylamino)-methyl]-phenylamino}-6-[3,3-difluoro-cyclobutylamino]-1-methyl-1H-benzimidazole-5-carboxylic acid amide]
[1]; [2]
  IC50: 5 nM
mPGES-1 in A549 cells; [3]
  IC50: 20 nM

## CC(C)(C)C(=O)NCc1ccc(F)c(Nc2nc3cc(C(=O)N[C@H]4CC[C@H](C(F)(F)F)CC4)c(N4CCC(F)CC4)cc3[nH]2)c1F [Example 5, N-(trans-4-Trifluoromethyl-cyclohexyl)-2-{2,6-difluoro-3[(2,2-dimethyl-propionylamino)-methyl]-phenylamino}-6-[4-fluoro-piperidinyl]-1H-benzimidazole-5-carboxylic acid amide]
[1]; [2]
  IC50: 2 nM
mPGES-1 in A549 cells; [3]
  IC50: 39 nM

## Cn1c(Nc2c(Cl)ccc(CNC(=O)C(C)(C)C)c2Cl)nc2cc(C(=O)NCC(F)(F)F)c(N3CCC(F)CC3)cc21 [Example 10]
[1]; [2]
  IC50: 2 nM
mPGES-1 in A549 cells; [3]
  IC50: 1 nM

## CC(C)(C)C(=O)NCc1ccc(Cl)c(Nc2nc3cc(C(=O)NCC(F)(F)F)c(N4CCC(F)CC4)cc3[nH]2)c1Cl [Example 11]
[1]; [2]
  IC50: 3 nM
mPGES-1 in A549 cells; [3]
  IC50: 3 nM

## Cn1c(Nc2c(F)ccc(CNC(=O)C(C)(C)C)c2F)nc2cc(C(=O)N[C@H]3CC[C@H](C(F)(F)F)CC3)c(N3CCC(F)CC3)cc21 [Example 12]
[1]; [2]
  IC50: 3 nM
mPGES-1 in A549 cells; [3]
  IC50: 3 nM

## Cn1c(Nc2c(Cl)ccc(CNC(=O)C(C)(C)C)c2Cl)nc2cc(C(=O)NC3CC(F)(F)C3)c(N3CCC(C(F)(F)F)CC3)cc21 [Example 14]
[1]; [2]
  IC50: 1 nM
mPGES-1 in A549 cells; [3]
  IC50: < 1 nM

## Cn1c(Nc2c(Cl)ccc(CNC(=O)C(C)(C)C)c2Cl)nc2cc(C(=O)Nc3ccc(F)c(Cl)c3)c(NC3CC(F)(F)C3)cc21 [Example 15]
[1]; [2]
  IC50: 4 nM
mPGES-1 in A549 cells; [3]
  IC50: 23 nM

## Cn1c(Nc2c(Cl)ccc(CNC(=O)C(C)(C)C)c2Cl)nc2cc(C(=O)Nc3ccc(F)c(Cl)c3)c(NCC(F)F)cc21 [Example 17]
[1]; [4]
  IC50: 3 nM
[1]; [2]
  IC50: 3 nM
mPGES-1 in A549 cells; [3]
  IC50: 6 nM
mPGES-1 in A549 cells; [5]
  IC50: 6 nM

## Cn1c(Nc2c(Cl)ccc(CNC(=O)C(C)(C)C)c2Cl)nc2cc(C(=O)N[C@H]3CC[C@H](C(F)(F)F)CC3)c(N3CC[C@H](F)C3)cc21 [Example 18]
[1]; [2]
  IC50: 3 nM
mPGES-1 in A549 cells; [3]
  IC50: 4 nM

## Cn1c(Nc2c(Cl)ccc(CNC(=O)C(C)(C)C)c2Cl)nc2cc(C(=O)N[C@H]3CC[C@H](C(F)(F)F)CC3)c(N3CC[C@@H](F)C3)cc21 [Example 19]
[1]; [2]
  IC50: 3 nM
mPGES-1 in A549 cells; [3]
  IC50: 1 nM

## Cn1c(Nc2c(Cl)ccc(CNC(=O)C(C)(C)C)c2Cl)nc2cc(C(=O)N[C@H]3CC[C@H](C(F)(F)F)CC3)c(N3CC(F)(F)C3)cc21 [Example 21]
[1]; [2]
  IC50: 4 nM
mPGES-1 in A549 cells; [3]
  IC50: 2.5 nM

## Cn1c(Nc2c(Cl)ccc(CNC(=O)C(C)(C)C)c2Cl)nc2cc(C(=O)N[C@H]3CC[C@H](C(F)(F)F)CC3)c(N3CC4CC4C3)cc21 (stereo partly shown) [Example 22]
[1]; [2]
  IC50: 5 nM
mPGES-1 in A549 cells; [3]
  IC50: 1.5 nM

## CN(c1cc2c(cc1C(=O)NCC(F)(F)F)nc(Nc1c(Cl)ccc(CNC(=O)C(C)(C)C)c1Cl)n2C)C1CC1 [Example 23]
[1]; [2]
  IC50: 4 nM
mPGES-1 in A549 cells; [3]
  IC50: 1 nM

## Cn1c(Nc2c(Cl)ccc(CNC(=O)C(C)(C)C)c2Cl)nc2cc(C(=O)N[C@H]3CC[C@H](C(F)(F)F)CC3)c(N3CCn4cncc4C3)cc21 [Example 24]
[1]; [2]
  IC50: 5 nM
mPGES-1 in A549 cells; [3]
  IC50: 44 nM

## CN1CCN(c2cc3c(cc2C(=O)N[C@H]2CC[C@H](C(F)(F)F)CC2)nc(Nc2c(Cl)ccc(CNC(=O)C(C)(C)C)c2Cl)n3C)CC1=O [Example 25]
[1]; [2]
  IC50: 4 nM
mPGES-1 in A549 cells; [3]
  IC50: 12 nM

## Cn1c(Nc2c(Cl)ccc(CNC(=O)C(C)(C)C)c2Cl)nc2cc(C(=O)NCC(F)(F)F)c(N3CCC(F)(F)C3)cc21 [Example 26, N-(2,2,2-Trifluoroethyl)-2-{2,6-dichloro-3-[(2,2-dimethyl-propionylamino)-methyl]-phenylamino}-6-[3,3-difluoro-pyrrolidinyl]-1-methyl-1H-benzimidazole-5-carboxylic acid amide]
[1]; [2]
  IC50: 3 nM
mPGES-1 in A549 cells; [3]
  IC50: 3.6 nM

## CN(c1cc2c(cc1C(=O)NCC(F)(F)F)nc(Nc1c(Cl)ccc(CNC(=O)C(C)(C)C)c1Cl)n2C)C1CCCC1 [Example 27]
[1]; [2]
  IC50: 2 nM
mPGES-1 in A549 cells; [3]
  IC50: 2 nM

## Cn1c(Nc2c(Cl)ccc(CNC(=O)C(C)(C)C)c2Cl)nc2cc(C(=O)NCC(F)(F)F)c(N3CCC(C(F)(F)F)CC3)cc21 [Example 28]
[1]; [2]
  IC50: 2 nM
mPGES-1 in A549 cells; [3]
  IC50: 1.5 nM

## Cn1c(Nc2c(Cl)ccc(CNC(=O)C(C)(C)C)c2Cl)nc2cc(C(=O)N[C@H]3CC[C@H](C(F)(F)F)CC3)c(N3CC4CCC3C4)cc21 (stereo partly shown) [Example 127]
[1]; [2]
  IC50: 2 nM

## CC(C)(O)Cn1c(Nc2c(Cl)ccc(CNC(=O)C(C)(C)C)c2Cl)nc2cc(C(=O)N[C@H]3CC[C@H](C(F)(F)F)CC3)c(N3CCOCC3)cc21 [Example 168]
[1]; [2]
  IC50: 3 nM
